Laboratory results: US6784204B2, “Antibiotic cytosporacin” (Wyeth Holdings Corporation, Five Giralda Farms, priority 2002, dated 2004)
≈ marks a conversion by molar mass, not a printed value.

Columns and labels:
Test in all cases: MIC by broth dilution method
Format in all cases: cell-based
[1] = test system: Bacillus subtilis 327 (BGSC-1A1); conditions: 18 hours at 35° C.
[2] = test system: Candida albicans 54 (CA300); conditions: 18 hours at 35° C.
Experimental: (§1) The minimum inhibitory concentration (MIC), the lowest concentration of the antibiotic which inhibits growth of the test organism, is determined by the broth dilution method using Muller-Hinton II […] (Baltimore Biological Laboratories) following the recommendations of the National Committee for Clinical Laboratory Standards [Methods for dilution antimicrobial susceptibility tests for bacteria that grow aerobically. Approved standard M7-A2. National Committee for Clinical Laboratory Standards, Villanova, Pa].
(§2) An inoculum level of 5×10^5 CFU/ml, and a range of antibiotic concentrations (256-1.0 μg/ml) is used. The MIC is determined after the microtiter plates are incubated for 18 hours at 35° C. in an ambient air incubator. The test organisms comprise a spectrum of Gram-positive bacteria comprised of Staphylococcus sp., Enterococcus sp., Gram-negative bacterium Escherichia coli, and the yeast Candida albicans. These organisms include recent clinical isolates that are resistant to piperacillin and vancomycin.

[3] = test system: Staphylococcus aureus 375 (ATCC3538p); conditions: 18 hours at 35° C.
Experimental: as §1, §2

[4] = test system: Escherichia coli 389 (GC4560 imp); conditions: 18 h
Experimental: as §1, §2

[5] = test system: Enterococcus faecium 379 (NC12204, vancomycin-resistant); conditions: 18 hours at 35° C.
Experimental: as §1, §2

[6] = test system: Escherichia coli 442 (GC4559); conditions: 18 hours at 35° C.
Experimental: as §1, §2

[7] = test system: Staphylococcus aureus 310 (SSC8224, methicillin-resistant); conditions: 18 hours at 35° C.
Experimental: as §1, §2

[8] = test system: Enterococcus faecium 436 (ID3151); conditions: 18 hours at 35° C.
Experimental: as §1, §2

C=C1OC(=O)c2c(cc3c(C4=C5C=C(O)C(=O)C(O)=C5C(CCCCCCC)OC4=O)c(O)cc(O)c3c2O)C1O (centres unmarked) [Cytosporacin]
MIC [1]: 32 µg/mL (≈ 56.7 µM) | MIC [2]: > 256 µg/mL | MIC [3]: 32 µg/mL (≈ 56.7 µM) | MIC [4]: 64 µg/mL (≈ 113 µM) | MIC [5]: 64 µg/mL (≈ 113 µM) | MIC [6]: 256 µg/mL (≈ 453 µM) | MIC [7]: 32 µg/mL (≈ 56.7 µM) | MIC [8]: 16 µg/mL (≈ 28.3 µM)
